Laboratory results reported in patent US10835532B2, “Muscarinic agonists as cognitive enhancers” (The University of Toledo, priority 2008, dated 2020).

What was measured:
[1] = target: T1, M3 receptors (Homo sapiens, UniProt P20309); assay: PI metabolism in A9 L cells expressing M3 receptors; format: cell-based; settings: M3 receptors expressed in A9 L cells
T1 construct: expressed in transfected cells; host or cells: A9 L cells
Method: (§1) The observed functional selectivity of CDD-0102A is unique among compounds purported to be selective M1 agonists. […] The lack of selectivity likely contributes to the high incidence of adverse effects observed when the compounds are administered to humans. To assess selectivity for muscarinic receptors, the ability of CDD-0102A to activate responses was compared with the nonselective, full agonist carbachol at each muscarinic receptor subtype. In cultured cell lines expressing individual muscarinic receptor subtypes, phosphoinositide (PI) metabolism studies assessed activity at M1, M3 and M5 receptors, while measures of cAMP levels examined M2 and M4 receptor activity. […] CDD-0102 was not active when M5 receptors were expressed at low levels in A9 L cells. […] Thus, CDD-0102 is a functionally-selective M1 agonist with weaker activity at M5 receptors, very weak activity at M3 receptor and no activity at M2 or M4 receptors.

[2] = target: T2, M4 receptors (Homo sapiens, UniProt P08173); assay: Inhibition of adenylyl cyclase activity (cAMP levels) in CHO cells expressing M4 receptors; format: cell-based
T2 construct: expressed in transfected cells; host or cells: CHO cells
T2 sequence (P08173 1-479): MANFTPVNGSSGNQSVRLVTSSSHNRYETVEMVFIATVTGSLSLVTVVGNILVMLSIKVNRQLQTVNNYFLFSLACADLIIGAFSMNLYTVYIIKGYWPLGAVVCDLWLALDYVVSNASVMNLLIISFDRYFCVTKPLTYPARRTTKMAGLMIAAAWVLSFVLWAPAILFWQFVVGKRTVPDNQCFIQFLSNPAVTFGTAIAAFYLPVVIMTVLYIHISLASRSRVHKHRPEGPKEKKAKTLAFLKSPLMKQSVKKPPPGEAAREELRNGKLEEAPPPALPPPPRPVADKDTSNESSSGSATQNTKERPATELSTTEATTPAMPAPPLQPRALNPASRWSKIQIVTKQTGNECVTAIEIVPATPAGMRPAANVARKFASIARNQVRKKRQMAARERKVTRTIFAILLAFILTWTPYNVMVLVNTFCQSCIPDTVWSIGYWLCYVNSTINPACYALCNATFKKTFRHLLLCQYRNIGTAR
Method: as §1

[3] = target: T3, M1 receptors (Homo sapiens, UniProt P11229); assay: PI metabolism in A9 L cells expressing M1 receptors; format: cell-based; settings: M1 receptors expressed in A9 L cells
T3 construct: expressed in transfected cells; host or cells: A9 L cells
T3 sequence (P11229 1-460): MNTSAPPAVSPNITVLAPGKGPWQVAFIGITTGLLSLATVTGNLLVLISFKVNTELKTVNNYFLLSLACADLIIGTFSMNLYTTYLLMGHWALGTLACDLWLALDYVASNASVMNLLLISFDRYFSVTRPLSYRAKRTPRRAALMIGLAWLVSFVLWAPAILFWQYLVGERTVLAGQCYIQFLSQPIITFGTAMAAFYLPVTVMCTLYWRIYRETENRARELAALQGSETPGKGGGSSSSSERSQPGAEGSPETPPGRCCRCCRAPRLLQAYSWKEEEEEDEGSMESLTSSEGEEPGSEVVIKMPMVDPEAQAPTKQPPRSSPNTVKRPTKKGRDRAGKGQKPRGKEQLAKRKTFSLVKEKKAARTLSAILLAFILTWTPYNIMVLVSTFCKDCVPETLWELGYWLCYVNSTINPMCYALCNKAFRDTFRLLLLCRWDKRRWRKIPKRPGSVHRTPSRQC
Method: as §1

[4] = target: T4, M2 receptors (Homo sapiens, UniProt P08172); assay: Inhibition of adenylyl cyclase activity (cAMP levels) in A9 L cells expressing M2 receptors; format: cell-based
T4 construct: expressed in transfected cells; host or cells: A9 L cells
T4 sequence (P08172 1-466): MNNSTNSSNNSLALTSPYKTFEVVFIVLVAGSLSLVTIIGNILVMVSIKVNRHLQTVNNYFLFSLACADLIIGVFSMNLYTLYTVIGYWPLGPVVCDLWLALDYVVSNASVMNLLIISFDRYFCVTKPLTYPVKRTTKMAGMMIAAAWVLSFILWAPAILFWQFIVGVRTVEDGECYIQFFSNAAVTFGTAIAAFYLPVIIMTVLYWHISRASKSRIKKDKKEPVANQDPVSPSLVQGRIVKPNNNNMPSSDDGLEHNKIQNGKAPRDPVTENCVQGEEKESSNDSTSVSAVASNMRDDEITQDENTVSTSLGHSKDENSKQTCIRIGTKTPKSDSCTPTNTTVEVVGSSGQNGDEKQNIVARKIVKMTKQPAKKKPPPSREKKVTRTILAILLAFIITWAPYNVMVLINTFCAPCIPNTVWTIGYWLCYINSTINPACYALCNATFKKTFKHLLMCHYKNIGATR
Method: as §1

[5] = target: T5, M5 receptors (Homo sapiens, UniProt P08912); assay: PI metabolism in A9 L cells expressing M5 receptors; format: cell-based
T5 construct: expressed in transfected cells; host or cells: A9 L cells
T5 sequence (P08912 1-532): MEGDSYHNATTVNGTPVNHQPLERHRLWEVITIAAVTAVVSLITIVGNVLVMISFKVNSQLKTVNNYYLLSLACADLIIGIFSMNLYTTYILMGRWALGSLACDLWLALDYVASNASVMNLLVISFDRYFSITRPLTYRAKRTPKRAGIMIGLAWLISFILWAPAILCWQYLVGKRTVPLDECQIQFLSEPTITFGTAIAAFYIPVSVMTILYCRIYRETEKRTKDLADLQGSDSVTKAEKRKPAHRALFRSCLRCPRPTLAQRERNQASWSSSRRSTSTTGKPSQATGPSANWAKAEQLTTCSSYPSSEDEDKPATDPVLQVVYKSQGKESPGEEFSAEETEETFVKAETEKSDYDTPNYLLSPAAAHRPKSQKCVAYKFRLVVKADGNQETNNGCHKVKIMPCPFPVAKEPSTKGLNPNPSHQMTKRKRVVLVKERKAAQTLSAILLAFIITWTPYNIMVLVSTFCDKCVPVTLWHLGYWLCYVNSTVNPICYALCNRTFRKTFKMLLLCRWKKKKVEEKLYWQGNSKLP
Method: as §1

[6] = tested on: rats with impaired cholinergic function; settings: Messer et al. 2002; cited from earlier work
[7] = Messer et al. 2002; cited from earlier work
[8] = read-out: EC50, stimulation of PI metabolism

T1 sequence (P20309 whole entry): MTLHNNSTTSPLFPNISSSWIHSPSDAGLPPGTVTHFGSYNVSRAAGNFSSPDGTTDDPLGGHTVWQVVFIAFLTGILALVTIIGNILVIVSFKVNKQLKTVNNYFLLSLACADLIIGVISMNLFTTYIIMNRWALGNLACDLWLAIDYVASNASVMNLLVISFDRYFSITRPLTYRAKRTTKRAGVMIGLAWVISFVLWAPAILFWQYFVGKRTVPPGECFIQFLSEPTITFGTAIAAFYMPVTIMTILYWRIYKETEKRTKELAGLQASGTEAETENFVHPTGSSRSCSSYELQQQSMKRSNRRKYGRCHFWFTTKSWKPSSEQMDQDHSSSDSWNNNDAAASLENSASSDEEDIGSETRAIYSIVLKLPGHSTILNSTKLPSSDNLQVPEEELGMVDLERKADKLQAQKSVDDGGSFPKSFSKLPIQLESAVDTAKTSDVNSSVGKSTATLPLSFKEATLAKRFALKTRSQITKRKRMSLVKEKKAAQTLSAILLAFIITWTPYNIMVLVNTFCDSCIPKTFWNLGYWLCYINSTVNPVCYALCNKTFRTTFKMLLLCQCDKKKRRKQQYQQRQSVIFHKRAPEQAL

## CCc1noc(C2CN=CNC2)n1 (centres unmarked) [CDD-0102, 5-(3-ethyl-1,2,4-oxadiazol-5-yl)-1,4,5,6-tetrahydropyrimidine]
[1]; [8]
  EC50: 10 µM
[1]; relative to carbachol
  PI metabolism, % of the carbachol response: 6.6%
[2]
  Inhibition of adenylyl cyclase activity: inactive
[3]; [8]
  EC50: 13 µM
[3]; relative to full agonist carbachol
  PI metabolism, % of the carbachol response: 46%
[4]
  Inhibition of adenylyl cyclase activity: inactive
[5]; M5 receptors expressed at low levels in A9 L cells
  Activity in PI metabolism: not active
[5]; higher levels of M5 receptor expression in A9 L cells, read-out: EC50, stimulation of PI metabolism
  EC50: 7.5 µM
[5]; higher levels of M5 receptor expression in A9 L cells, relative to carbachol
  PI metabolism, % of the carbachol response: 28%
[6]
  Memory deficits: reverses memory deficits
[7]
  Side effect profile in vivo: low side effect profile
